# How the values were obtained:
# E. coli GC 2236 = assay: MIC, broth microdilution; settings: Escherichia coli
# Staph. = assay: Range of MIC for Staph. strains, including MRSA; settings: Staphylococcus aureus, MRSA, read-out: Range of MIC, Staph (Mouse Serum)
# E. coli GC 2203 = assay: MIC, broth microdilution; settings: Escherichia coli
# E. faecium GC 4556 = assay: MIC, broth microdilution; settings: Enterococcus faecium
# E. coli GC 2233 = assay: MIC, broth microdilution; settings: Escherichia coli
# Protocol: (§1) Antimicrobial susceptibility testing. The in vitro activities of the antibiotics are determined by the broth microdilution method as recommended by the National Committee for Clinical Laboratory Standards (NCCLS) (1). Mueller-Hinton II broth (MHBII)(BBL Cockeysville, Md.) is the medium employed in the testing procedures. Microtiter plates containing serial dilutions of each antimicrobial agent are inoculated with each organism to yield the appropriate density (10^5 CFU/ml) in a 100 μl final volume. The plates are incubated for 18-22 hours at 35° C. in ambient air.
# (§2) Representative compounds were first incubated in mouse serum for an hour prior to the in vitro testing against a panel of selected gram-positive and gram-negative bacteria strains. All compounds were also pre-incubated in water for an hour prior to testing as control.
# S. aureus GC 1079 = assay: MIC, broth microdilution; settings: Staphylococcus aureus
# E. coli GC 6465 = assay: MIC, broth microdilution; settings: Escherichia coli
# Protocol: as §1, §2
# S. aureus GC 6467 = assay: MIC, broth microdilution; settings: Staphylococcus aureus
# S. aureus GC 6466 = assay: MIC, broth microdilution; settings: Staphylococcus aureus
# E. faecalis GC 2267 = assay: MIC, broth microdilution; settings: Enterococcus faecalis
# E. coli GC 2234 = assay: MIC, broth microdilution; settings: Escherichia coli
# S. typhimurium GC 2172 = assay: MIC, broth microdilution; settings: Salmonella enterica, TYPHIMURIUM
# S. aureus GC 1131 = assay: MIC, broth microdilution; settings: Staphylococcus aureus
# S. pneumoniae* GC 4465 = assay: MIC, broth microdilution; settings: Streptococcus pneumoniae
# E. coli GC 4560 = assay: MIC, broth microdilution; settings: Escherichia coli
# E. coli GC 2231 = assay: MIC, broth microdilution; settings: Escherichia coli
# S. epidermidis GC 4935 = assay: MIC, broth microdilution; settings: Staphylococcus epidermidis
# E. coli GC 2272 = assay: MIC, broth microdilution; settings: Escherichia coli
# E. coli GC 2235 = assay: MIC, broth microdilution; settings: Escherichia coli
# E. faecalis GC 4555 = assay: MIC, broth microdilution; settings: Enterococcus faecalis
structure (smiles),measurement,setting,value
"CCCN(CC(=O)Nc1cc(N(C)C)c2c(c1O)C(=O)C1=C(O)[C@]3(O)C(=O)C(C(N)=O)=C(O)C(N(C)C)C3CC1C2)C(=O)OCc1oc(=O)oc1-c1ccccc1 (stereo in doubt) [Example 110, (2-oxo-5-phenyl-1,3-dioxol-4-yl)methyl 2-{[(7R,10aS)-9-(aminocarbonyl)-4,7-bis(dimethylamino)-1,8,10a,11-tetrahydroxy-10,12-dioxo-5,5a,6,6a,7,10,10a,12-octahydrotetracen-2-yl]amino}-2-oxoethyl(propyl)carbamate]",MIC,"E. coli GC 2236; GC2236, pre-incubation in mouse serum",1 µg/mL
same,MIC,"E. coli GC 2236; GC2236, pre-incubation in water",2 µg/mL
same,MIC,Staph.,1 to 32 µg/mL
same,MIC,"E. coli GC 2203; GC2203, pre-incubation in mouse serum",1 µg/mL
same,MIC,"E. coli GC 2203; GC2203, pre-incubation in water",4 µg/mL
same,MIC,"E. faecium GC 4556; GC4556, pre-incubation in mouse serum",1 µg/mL
same,MIC,"E. faecium GC 4556; GC4556, pre-incubation in water",2 µg/mL
same,MIC,"E. coli GC 2233; GC2233, pre-incubation in mouse serum",0.5 µg/mL
same,MIC,"E. coli GC 2233; GC2233, pre-incubation in water",1 µg/mL
same,MIC,"S. aureus GC 1079; GC1079, pre-incubation in mouse serum",16 µg/mL
same,MIC,"S. aureus GC 1079; GC1079, pre-incubation in water",16 µg/mL
same,MIC,"E. coli GC 6465; GC6465, pre-incubation in mouse serum",64 µg/mL
same,MIC,"E. coli GC 6465; GC6465, pre-incubation in water",> 64 µg/mL
same,MIC,"S. aureus GC 6467; GC6467, pre-incubation in mouse serum",32 µg/mL
same,MIC,"S. aureus GC 6467; GC6467, pre-incubation in water",> 64 µg/mL
same,MIC,"S. aureus GC 6466; GC6466, pre-incubation in mouse serum",1 µg/mL
same,MIC,"S. aureus GC 6466; GC6466, pre-incubation in water",2 µg/mL
same,MIC,"E. faecalis GC 2267; GC2267, pre-incubation in mouse serum",8 µg/mL
same,MIC,"E. faecalis GC 2267; GC2267, pre-incubation in water",4 µg/mL
same,MIC,"E. coli GC 2234; GC2234, pre-incubation in mouse serum",1 µg/mL
same,MIC,"E. coli GC 2234; GC2234, pre-incubation in water",2 µg/mL
same,MIC,S. typhimurium GC 2172; pre-incubation in mouse serum,64 µg/mL
same,MIC,S. typhimurium GC 2172; pre-incubation in water,> 64 µg/mL
same,MIC,"S. aureus GC 1131; GC1131, pre-incubation in mouse serum",2 µg/mL
same,MIC,"S. aureus GC 1131; GC1131, pre-incubation in water",4 µg/mL
same,MIC,S. pneumoniae* GC 4465; pre-incubation in mouse serum,0.25 µg/mL
same,MIC,S. pneumoniae* GC 4465; pre-incubation in water,0.12 µg/mL
same,MIC,"E. coli GC 4560; GC4560, pre-incubation in mouse serum",0.25 µg/mL
same,MIC,"E. coli GC 4560; GC4560, pre-incubation in water",0.5 µg/mL
same,MIC,"E. coli GC 2231; GC2231, pre-incubation in mouse serum",4 µg/mL
same,MIC,"E. coli GC 2231; GC2231, pre-incubation in water",8 µg/mL
same,MIC,"S. epidermidis GC 4935; GC4935, pre-incubation in mouse serum",4 µg/mL
same,MIC,"S. epidermidis GC 4935; GC4935, pre-incubation in water",8 µg/mL
same,MIC,"E. coli GC 2272; GC2272, pre-incubation in mouse serum",1 µg/mL
same,MIC,"E. coli GC 2272; GC2272, pre-incubation in water",1 µg/mL
same,MIC,"E. coli GC 2235; GC2235, pre-incubation in mouse serum",0.5 µg/mL
same,MIC,"E. coli GC 2235; GC2235, pre-incubation in water",1 µg/mL
same,MIC,"E. faecalis GC 4555; GC4555, pre-incubation in mouse serum",1 µg/mL
same,MIC,"E. faecalis GC 4555; GC4555, pre-incubation in water",2 µg/mL

# Reference: patent US20070049564A1 (Wyeth, priority 2005, published 2007)
